We go through 7 compounds from PubChem BioAssay (NCI).

Common to all, as to assay: NCI tumour cell line growth inhibition, 48 h
For test [1], the system named is DU-145 prostate.
In test [2] the test system is U251 CNS.
For test [3], the system named is NCI-H522 lung.
For test [4], the system named is HCC-2998 colon.
In test [5] the test system is HS 578T breast.
The subject of test [6] is MDA-MB-231 breast.
For test [7], the system named is SK-MEL-5 melanoma.
The subject of test [8] is SN12C renal.
Test [9] relates to LOX IMVI melanoma.
For test [10], the system named is BT-549 breast.

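Tested at 5 concentrations; 48 h exposure; 96-well plates; endpoints linearly interpolated, else capped at highest concentration. Here, GI50 denotes the concentration required for 50% inhibition of growth. TGI: concentration producing complete growth inhibition.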

For the compound `Cc1ccc(C(=NN=C(N)N)c2ccc(C)cc2)cc1`, the GI50 in test [1] is 0.313 µM; in [2], 0.399 µM; in test [3], 0.335 µM; in test [4] it was 0.683 µM; in test [5] it was 0.424 µM; in test [6], 0.926 µM. The GI50 in test [7] was 0.427 µM; in test [8], 1.07 µM; in [9], 0.587 µM; in test [10], 2.21 µM. The TGI in test [1] worked out at 1.16 µM; in test [2], 1.83 µM; in test [3] it was 1.19 µM; in test [4], 1.93 µM; in [5], 3.69 µM; in test [6], 4.36 µM. For the same compound, the TGI in test [7] amounted to 1.5 µM; in test [8], 11.6 µM; in [9], 3.38 µM; in [10], 8.69 µM.
Consider `NC(N)=NCCCn1c2c(c3ccccc3c1=O)C(=O)c1ccccc1-2`, for which the GI50 in [1] was 7.59 µM; in test [2] it was 0.223 µM; in test [3], 2.45 µM; in test [4] it was 3.6 µM; in [5], 2.67 µM; in test [6], 15.8 µM. For the same compound, the GI50 in test [7] was 15.1 µM; in test [8], 0.229 µM; in test [9], 14.4 µM; in test [10], 2.28 µM. Further, the TGI in [1] was found to be 22.9 µM; in test [2], 0.637 µM; in test [3], 11.1 µM; in test [4], 15.8 µM; in test [5], 25.7 µM; in [6] it was 46.7 µM. For the same compound, the TGI is 29.5 µM in test [7], 0.572 µM in test [8], 28.8 µM in test [9] and 5.51 µM in [10].
As for `NC(=S)N/N=C/c1ccc(OC(=O)COc2ccc(Cl)cc2)cn1`, the GI50 in test [1] is 2.46 µM; in test [2] it was 4.24 µM; in [3], 0.718 µM; in test [4], 8.46 µM; in test [5], 2.86 µM; in [6], 6.61 µM. The GI50 in [7] is 3.24 µM; in [8], 4.53 µM; in test [9], 3.18 µM; in test [10], 4.74 µM. Also, the TGI in test [1] is 8.65 µM; in [2], above 100 µM; in test [3] it was 40 µM; in [4], above 100 µM; in [5], above 100 µM; in test [6], above 100 µM. Also, the TGI was 23.6 µM in test [7], above 100 µM in test [8], above 100 µM in [9] and above 100 µM in test [10].
For the compound `COc1ccc(C(=O)c2cc(C)c(OC)c(C)c2)c(OC)c1N(C(=O)C(Cl)Cl)C(=O)C(Cl)Cl`, the GI50 in [1] was 0.0392 µM; in [2], 0.0553 µM; in test [3], 0.0322 µM; in test [4], 0.0799 µM; in test [5], 0.0277 µM; in test [6], 0.107 µM. Besides, the GI50 in test [7] is 0.0509 µM; in [8], 0.0727 µM; in test [9] it was 0.159 µM; in test [10], 0.0607 µM. Besides, the TGI in [1] is above 100 µM; in test [2] it was above 100 µM; in test [4], above 41.2 µM; in test [5], above 100 µM; in test [6], above 100 µM; in [7], 2.14 µM. Further, the TGI in [8] was above 100 µM; in test [9], above 100 µM; in test [10] it was 2.75 µM.
For the compound `C[N+](C)(C)CC1CCCC(C[N+](C)(C)C)C1=O` (stereo not drawn), the TGI in test [1] turned out to be 16.7 µM; in test [2], 10.3 µM; in test [3], 53.2 µM; in [4], 8.63 µM; in test [5], 33.6 µM; in test [6] it was 3.58 µM. Besides, the TGI worked out at 10.5 µM in test [7], 1.5 µM in test [8], 3.09 µM in [9] and 3.09 µM in [10].
Consider `COC(=O)Nc1nc2ccc(Oc3ccc(NC(=O)Nc4ccccc4)cc3)cc2[nH]1`, for which the GI50 in test [1] was 0.254 µM; in test [2] it was 0.126 µM; in test [3], 0.0686 µM; in test [4] it was 0.458 µM; in [5], 0.0921 µM; in [6], 0.32 µM. The GI50 in test [7] was 0.0702 µM; in test [8], 0.452 µM; in [9], 0.178 µM; in [10], 1.61 µM. The TGI in test [1] was 3.1 µM; in [2], 6.6 µM; in [3], 0.667 µM; in test [4] it was above 17.7 µM; in test [5], 4.45 µM; in test [6] it was 10.3 µM. Moreover, the TGI is 1.18 µM in [7], above 10.9 µM in test [8], above 9.6 µM in [9] and 11.8 µM in [10].
`O=C1NC(=O)c2ccc([N+](=O)[O-])c3cccc1c23`: the TGI in test [1] was above 100 µM; in test [2], 32.3 µM; in [3], 6.11 µM; in test [4] it was 52.3 µM; in [5] it was 61 µM; in test [6], 34.5 µM. For the same compound, the TGI in test [7] amounted to 34.6 µM; in test [8] it was 32.1 µM; in test [10], 33.7 µM.
